Earlier results in patent publication US4644054A, “Calcitonin analogs with amino acid substituents at position 31” (priority 1985, dated 1987).
Bridge positions count the residues as written; N and C are the ends. Ends that are not written are not given here.

Details: compared with natural human calcitonin

Substance	activity relative to natural human calcitonin
Salmon 1 calcitonin	thirty to forty times more active
human calcitonin analog with Serine^29 and Threonine^31substituents: human calcitonin analog with Serine at position 29 and Threonine at position 31 (Maier et al. 1974) (CGNLSTCMLGTYTQDFNKFHTFPQTAIGSGTP; disulfide 1-7; ends not checked; UniProt P01258 85-116, looked up, variant V29S A31T)	five times more active
